Where two headings read alike, the source gives them in different places.

The values that follow come from article PMC12406204 (Journal of Medicinal Chemistry, 2025).

In test [1] the target is T1, CB1R (Homo sapiens, UniProt P21554). Details: host or cells: CHO-CB1 C3 cell line.
The target of test [2] is T2, CB2R (Homo sapiens, UniProt P34972). Details: expressed in transfected cells; host or cells: HEK-293T (HEK-CB2 cell line).
The target in test [3] is T1, CB1R. Put plainly: CB1R radioligand binding competition ([3H]CP55,940). Also on record: host or cells: CHO-CB1 C3 cell line. Particulars: for CB1R % at 1 μM: percentage displacement of specific [3H]CP 55,940 binding at 1 μM, n = 2; for Ki: displacement of [3H]CP 55,940, membranes of CHO-CB1 C3 cells, n = 3. Background: Displacement assays read how much labelled ligand stays bound in the presence of the test substance.

For test [4], the target named is T2, CB2R. Put plainly: CB2R radioligand binding competition ([3H]CP55,940). Also on record: expressed in transfected cells; host or cells: HEK-293T (HEK-CB2 cell line). The note with it: for Ki: displacement of [3H]CP 55,940, membranes of HEK-293T cells, n = 3; for SI Ki CB1R/Ki CB2R: selectivity index, affinity ratio; for CB2R % at 1 μM: percentage displacement of specific [3H]CP 55,940 binding at 1 μM, n = 2.

The mark [5] stands for this setting: read-out: CB1R Ki; abused SCRAs and N-methyl analogues, earlier study of the authors; cited from earlier work.
Where [6] appears, read: read-out: CB2R Ki; abused SCRAs and N-methyl analogues, earlier study of the authors; cited from earlier work.
Where [7] appears, read: at 1 μM, earlier study of the authors; cited from earlier work.

T2 sequence (P34972 whole entry): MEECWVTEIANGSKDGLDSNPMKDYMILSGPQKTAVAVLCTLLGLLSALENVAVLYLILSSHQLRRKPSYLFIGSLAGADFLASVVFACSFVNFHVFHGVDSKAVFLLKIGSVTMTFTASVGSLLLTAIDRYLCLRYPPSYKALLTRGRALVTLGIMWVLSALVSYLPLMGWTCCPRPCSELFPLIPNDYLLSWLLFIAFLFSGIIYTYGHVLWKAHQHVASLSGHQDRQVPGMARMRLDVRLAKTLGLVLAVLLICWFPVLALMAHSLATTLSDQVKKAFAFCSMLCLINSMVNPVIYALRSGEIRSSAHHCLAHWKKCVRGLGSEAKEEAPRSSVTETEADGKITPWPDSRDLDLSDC
T1 sequence (P21554 whole entry): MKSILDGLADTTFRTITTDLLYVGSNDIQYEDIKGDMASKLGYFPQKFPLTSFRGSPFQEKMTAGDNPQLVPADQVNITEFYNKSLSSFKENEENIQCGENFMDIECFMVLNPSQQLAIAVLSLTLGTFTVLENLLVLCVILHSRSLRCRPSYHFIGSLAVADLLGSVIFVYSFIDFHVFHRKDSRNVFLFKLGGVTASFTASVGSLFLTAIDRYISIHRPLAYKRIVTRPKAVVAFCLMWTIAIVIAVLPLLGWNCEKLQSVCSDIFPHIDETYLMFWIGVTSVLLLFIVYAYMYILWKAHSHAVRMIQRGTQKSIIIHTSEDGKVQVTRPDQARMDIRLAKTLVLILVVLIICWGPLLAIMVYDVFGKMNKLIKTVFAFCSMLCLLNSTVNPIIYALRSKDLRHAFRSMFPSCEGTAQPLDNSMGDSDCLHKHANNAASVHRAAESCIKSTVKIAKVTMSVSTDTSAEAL

`CC(C)[C@H](NC(=O)c1cn(CCCCCF)c2ccccc12)C(N)=O` [compound 7, 5F-AB-PICA]: the inhibition constant (Ki) – broadly, the dissociation constant of the complex between target and ligand, obtained from inhibition or displacement – was 14.8 nM at CB1R [1] (setting [5]) and 8.6 nM at CB2R [2] (setting [6]).
`CN(CC(N)=O)C(=O)c1nn(CC2CCCCC2)c2ccccc12` [compound 14]: the “CB1R % (1 μM)” value at CB1R [1] (setting [7]) is listed as 21%. Moreover, the Ki on CB2R [2] (setting [6]) was 482 nM.
As to `CC(C)[C@H](NC(=O)c1cn(Cc2ccc(F)cc2)c2ccccc12)C(N)=O` [compound 8, AB-FUBICA], the Ki is 35.2 nM at CB1R [1] (setting [5]) and 83.2 nM on CB2R [2] (setting [6]).
With `COC(=O)[C@@H](NC(=O)c1cn(Cc2ccc(F)cc2)c2ccccc12)C(C)C` [compound 4, AMB-FUBICA], the Ki is 47.8 nM at CB1R [1] (abused SCRAs and N-methyl analogues, earlier study of the authors; read-out: CB1R Ki; cited from earlier work); 20 nM at CB2R [2] (abused SCRAs and N-methyl analogues, earlier study of the authors; read-out: CB2R Ki; cited from earlier work).
Turning to `COC(=O)[C@@H](NC(=O)c1cn(CC2CCCCC2)c2ccccc12)C(C)C` [compound 3, AMB-CHMICA], the Ki at CB1R [1] (setting [5]) was 10.5 nM; on CB2R [2] (setting [6]) it was 3.44 nM.
As to `CC(C)[C@H](NC(=O)c1nn(CC2CCCCC2)c2ccccc12)C(N)=O` [compound 6], the values for the Ki at CB1R [1] (setting [5]) and at CB2R [2] (setting [6]) were 0.9 nM and 1.1 nM, respectively.
Take `CC(C)(C)[C@H](NC(=O)c1cn(CC2CCCCC2)c2ccccc12)C(N)=O` [compound 9, ADB-CHMICA]: the Ki was 1.1 nM at CB1R [1] (setting [5]) and 0.76 nM on CB2R [2] (setting [6]).
For `CCCCCn1nc(C(=O)N[C@H](C(N)=O)C(C)C)c2ccccc21` [compound 5, AB-PINACA], the Ki at CB1R [1] (setting [5]) is 1.16 nM; at CB2R [2] (setting [6]) it was 0.94 nM.
As for `COC(=O)CN(C)C(=O)c1nn(Cc2ccc(F)cc2)c2ccccc12` [compound 12], the “CB1R % (1 μM)” value at CB1R [1] (setting [7]) is on record as 33%. For the same compound, at CB2R [2] (setting [6]), the Ki is 540 nM.
Turning to `CC(C)(C)[C@H](NC(=O)c1cn(Cc2ccc(F)cc2)c2ccccc12)C(N)=O` [compound 10, ADB-FUBICA], the Ki on CB1R [1] (setting [5]) was 53.8 nM; at CB2R [2] (setting [6]) it was 5.15 nM.
`COC(=O)[C@@H](NC(=O)c1nn(Cc2ccc(F)cc2)c2ccccc12)C(C)(C)C` [compound 2, MDMB-FUBINACA]: the Ki at CB1R [1] (setting [5]) is 0.83 nM; at CB2R [2] (setting [6]), 0.3 nM.
In the case of `NC(=O)[C@@H]1CCCN1C(=O)c1nn(Cc2ccc(F)cc2)c2ccccc12` [17o], the “CB1R % at 1 μM” value on CB1R [3] is listed as 4%. In addition, on CB2R [4], the affinity corresponds to a Ki of 628 ± 21 nM and the “SI Ki CB1R/Ki CB2R” value is over 100.
In the same order, the values of `COC(=O)[C@H]1CCCCN1C(=O)c1cn(Cc2ccc(F)cc2)c2ccccc12` [16h] are 35%, 109 ± 4 nM and over 100.
Consider `NC(=O)[C@@H]1CCCCN1C(=O)c1nn(CCCCCF)c2ccccc12` [18k], for which the “CB1R % at 1 μM” value at CB1R [3] is recorded as 3%. For the same compound, at CB2R [4], the affinity, expressed as Ki, was 151 ± 6 nM and the “SI Ki CB1R/Ki CB2R” value is recorded as over 100.
As for `NC(=O)[C@@H]1CCCCN1C(=O)c1cn(CCCCCF)c2ccccc12` [18c], the “CB1R % at 1 μM” value at CB1R [3] is reported as 7%. Moreover, at CB2R [4], the Ki is 132 ± 4 nM and the “SI Ki CB1R/Ki CB2R” value is over 100.
Consider `NC(=O)CNC(=O)c1nn(CC2CCCCC2)c2ccccc12` [compound 13], for which the Ki at CB1R [1] (setting [5]) is 268 nM; at CB2R [2] (setting [6]) it was 171 nM.
On CB1R [3], `CCCCCn1cc(C(=O)N2CCCC[C@H]2C(=O)OC)c2ccccc21` [16a] displayed a Ki of 644 ± 13 nM. Besides, at CB2R [4], the Ki is 114 ± 6 nM and the “SI Ki CB1R/Ki CB2R” value came to 6.
Turning to `COC(=O)[C@@H](NC(=O)c1nn(CCCCCF)c2ccccc12)C(C)(C)C` [compound 1, 5F-MDMB-PINACA], the values for the Ki at CB1R [1] (setting [5]) and on CB2R [2] (setting [6]) were 0.8 nM and 0.1 nM, respectively.
As to `COC(=O)[C@H]1CCCN1C(=O)c1nn(CC2CCCCC2)c2ccccc12` [15n], the “CB1R % at 1 μM” value at CB1R [3] is 2%. Besides, on CB2R [4], the inhibition constant (Ki) is 99.3 ± 2.8 nM and the “SI Ki CB1R/Ki CB2R” value is given as over 100.
On to `COC(=O)[C@@H]1CCCCN1C(=O)c1cn(CCCCCF)c2ccccc12` [16c], for which the affinity at CB1R [3] corresponds to a Ki of 716 ± 16 nM. At CB2R [4], the affinity, expressed as Ki, was 84.1 ± 1.9 nM and the “SI Ki CB1R/Ki CB2R” value came out at 8.
On to `COC(=O)[C@H]1CCCCN1C(=O)c1nn(CCCCCF)c2ccccc12` [16l], for which, at CB1R [3], the “CB1R % at 1 μM” value was 5%. Besides, at CB2R [4], the inhibition constant Ki is 127 ± 5 nM and the “SI Ki CB1R/Ki CB2R” value was over 100.
For `NC(=O)[C@H]1CCCCN1C(=O)c1nn(CCCCCF)c2ccccc12` [18l], the “CB1R % at 1 μM” value at CB1R [3] is reported as 3%. Also, on CB2R [4], the affinity corresponds to a Ki of 143 ± 5 nM and the “SI Ki CB1R/Ki CB2R” value is given as over 100.
On CB1R [3], `COC(=O)[C@@H]1CCCCN1C(=O)c1cn(Cc2ccc(F)cc2)c2ccccc12` [16g] showed a Ki of 90.3 ± 2.3 nM. In addition, on CB2R [4], affinity was put at a Ki of 22.5 ± 1.1 nM and the “SI Ki CB1R/Ki CB2R” value worked out at 4.
`COC(=O)[C@@H]1CCCCN1C(=O)c1cn(CC2CCCCC2)c2ccccc12` [16e]: at CB1R [3], the inhibitory constant (Ki) was 122 ± 8 nM. Also, at CB2R [4], the Ki was 45.1 ± 1.7 nM and the “SI Ki CB1R/Ki CB2R” value is given as 3.
With `NC(=O)[C@H]1CCCN1C(=O)c1cn(Cc2ccc(F)cc2)c2ccccc12` [17h], the “CB1R % at 1 μM” value at CB1R [3] came to 4%. Moreover, the “CB2R % at 1 μM” value at CB2R [4] is 7%.
As to `NC(=O)[C@H]1CCCN1C(=O)c1cn(CC2CCCCC2)c2ccccc12` [17f], on CB1R [3], the “CB1R % at 1 μM” value is on record as 3%. Moreover, at CB2R [4], the affinity, expressed as Ki, was 411 ± 16 nM and the “SI Ki CB1R/Ki CB2R” value is listed as over 100.
`COC(=O)CNC(=O)c1nn(Cc2ccc(F)cc2)c2ccccc12` [compound 11]: the Ki at CB1R [1] (setting [5]) was 181 nM; on CB2R [2] (setting [6]) it was 125 nM.
In the case of `CCCCCn1cc(C(=O)N2CCCC[C@@H]2C(=O)OC)c2ccccc21` [16b], the “CB1R % at 1 μM” value at CB1R [3] was 18%. Moreover, at CB2R [4], the Ki was found to be 273 ± 4 nM and the “SI Ki CB1R/Ki CB2R” value is over 100.
As for `NC(=O)[C@@H]1CCCN1C(=O)c1nn(CCCCCF)c2ccccc12` [17k], at CB1R [3], the “CB1R % at 1 μM” value came to 2%. Besides, the “CB2R % at 1 μM” value on CB2R [4] is listed as 17%.
Consider `COC(=O)[C@@H]1CCCCN1C(=O)c1nn(CCCCCF)c2ccccc12` [16k], for which, on CB1R [3], the inhibition constant (Ki) turned out to be 392 ± 5 nM. For the same compound, on CB2R [4], the Ki was 10.6 ± 0.7 nM and the “SI Ki CB1R/Ki CB2R” value is listed as 37.
Consider `CCCCCn1cc(C(=O)N2CCCC[C@@H]2C(N)=O)c2ccccc21` [18b], for which the “CB1R % at 1 μM” value at CB1R [3] is recorded as 10%. Besides, at CB2R [4], the Ki was found to be 136 ± 5 nM and the “SI Ki CB1R/Ki CB2R” value is over 100.
Turning to `CCc1c(C(=O)NN2CCCCC2)nn(-c2ccc(Cl)cc2Cl)c1-c1ccc(Br)cc1` [Surinabant, reference compound], the Ki stood at 3 ± 0.2 nM at CB1R [3] and 400 ± 6 nM at CB2R [4]. Besides, the “SI Ki CB1R/Ki CB2R” value on CB2R [4] is 0.0075.
On to `COC(=O)[C@H]1CCCN1C(=O)c1cn(CCCCCF)c2ccccc12` [15d], for which the “CB1R % at 1 μM” value on CB1R [3] stood at 3%. In addition, the “CB2R % at 1 μM” value at CB2R [4] was found to be 26%.
With `CCCCCn1nc(C(=O)N2CCC[C@@H]2C(N)=O)c2ccccc21` [17j], the “CB1R % at 1 μM” value on CB1R [3] is listed as 3%. Moreover, the “CB2R % at 1 μM” value on CB2R [4] worked out at 28%.
Take `COC(=O)[C@H]1CCCCN1C(=O)c1nn(CC2CCCCC2)c2ccccc12` [16n]: the “CB1R % at 1 μM” value on CB1R [3] stood at 3%. On CB2R [4], the Ki was determined as 164 ± 5 nM and the “SI Ki CB1R/Ki CB2R” value is reported as over 100.
For the compound `COC(=O)[C@@H]1CCCN1C(=O)c1cn(Cc2ccc(F)cc2)c2ccccc12` [15g], at CB1R [3], affinity was put at a Ki of 14.4 ± 0.6 nM. For the same compound, on CB2R [4], the affinity, expressed as Ki, was 47.7 ± 1.9 nM and the “SI Ki CB1R/Ki CB2R” value is reported as 0.3.
